{"source": "patent US10961228B2", "about": "“JAK1 selective inhibitors” (AstraZeneca AB, priority 2017, dated 2021)", "key": {"[1]": {"biological_target": "recombinant JAK1 (amino acids 866-1154) (Homo sapiens (Human), UniProt P23458)", "sequence (P23458 866-1154)": "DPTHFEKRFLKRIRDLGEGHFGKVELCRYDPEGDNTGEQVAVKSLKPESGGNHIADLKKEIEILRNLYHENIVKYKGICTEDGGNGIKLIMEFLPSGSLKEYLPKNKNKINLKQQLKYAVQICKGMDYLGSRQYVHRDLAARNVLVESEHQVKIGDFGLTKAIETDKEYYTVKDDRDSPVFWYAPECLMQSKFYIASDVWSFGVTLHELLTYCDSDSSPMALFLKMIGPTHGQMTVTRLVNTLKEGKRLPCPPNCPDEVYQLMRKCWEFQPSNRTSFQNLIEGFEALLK", "experiment": "Enzyme inhibition studies, JAK1 (5 mM ATP, Caliper)", "format": "biochemical", "method_in_brief": "(§1)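 N-terminal GST-fused kinase domains from insect cells, run at 5 mM ATP with inhibitor at 30, 3, 0.3, 0.03, 0.003 and 0 μM final.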"}, "[2]": {"biological_target": "recombinant JAK3 (amino acids 781-1124) (Homo sapiens (Human), UniProt P52333)", "sequence (P52333 781-1124)": "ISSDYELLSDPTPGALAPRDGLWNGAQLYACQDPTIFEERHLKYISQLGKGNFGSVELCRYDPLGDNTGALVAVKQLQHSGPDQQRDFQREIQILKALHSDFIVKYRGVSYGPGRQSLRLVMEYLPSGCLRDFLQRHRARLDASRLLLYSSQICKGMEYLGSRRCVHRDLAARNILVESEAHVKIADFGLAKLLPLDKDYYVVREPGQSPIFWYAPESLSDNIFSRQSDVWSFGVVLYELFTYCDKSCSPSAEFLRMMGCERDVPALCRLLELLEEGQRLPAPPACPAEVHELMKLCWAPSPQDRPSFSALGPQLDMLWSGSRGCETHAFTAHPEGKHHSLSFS", "experiment": "Enzyme inhibition studies, JAK3 (5 mM ATP, Caliper)", "format": "biochemical", "method_in_brief": "as §1"}, "[3]": {"experiment": "Plasma drug concentration by LC-MSMS at termination of alopecia areata study", "format": "in vivo", "settings": "1-2 h after last oral dose at 12.5 mg/kg BW, C3H/HeJ mice", "method": "Blood was sampled from behind the eye in EDTA-coated test tubes (Multivette 300, Sarstedt) and kept on ice. Plasma was obtained by centrifugation (4° C., 4000 G, 5 min) and 50 μL transferred to a 96-well NUNC plate and stored at −20° C. until analyzed with regards to drug concentration by LC-MSMS."}, "[4]": {"tested_on": "OVA-challenged Brown Norway rat", "experiment": "OVA lung inflammation model, eosinophils in broncho alveolar lavage", "format": "in vivo", "settings": "for reduction of eosinophils in BAL: inhaled DPI, vs OVA/OVA group 3", "method": "Brown Norway rats were sensitised and challenged with chicken ovary albumin (OVA) (Clinical and Experimental Allergy, 37 (2007) 973-988). After inhaling an amount of micronized compound within the scope of the present disclosure, the reduction in airway inflammation in the lung of OVA-challenged Brown Norway rat was measured as % reduction of eosinophils in broncho alveolar lavage (BAL) compared to challenged, but untreated rat using the following protocol. As the model control, an i.t. over dose (2*300 μg/kg) of the model reference compound, Budesonide, was used. 74 animals were divided into 8 experimental groups and treated as follows: • Group 1 (Saline/Saline/Air), n=6—Sham (saline) sensitisation at Day0 (S1) and Day7 (S2) and sham (saline) challenged at Day14 (P1). Treatment room air • Group 2 (OVA/Saline/Lactose), n=8—Sensitised at Day0 (S1) and Day7 (S2) with Al(OH)3/OVA mixture followed by the i.t. sham (saline) challenge at Day14 (P1). Treatment DPI Lactose. • Group 3 (OVA/OVA/Lactose), n=12—Sensitised at Day0 (S1) and Day7 (S2) with Al(OH)3/OVA mixture followed by the i.t. OVA challenge at Day14 (P1). […] Treatment i.t. with Budesonide (model reference compound) at 2×300 μg/kg Day14. Twice daily. Prior to start of first sensitisation (S1), the body weight (BW) was recorded and all rats were tail marked with the identification number. The BW was additionally recorded prior to S2 and prior to the termination point (D15). All of the animals' BAL was determined. At the time of termination, the performer(s) (investigator) were blinded to the status of the individual rats, The rats where subcutaneously (s.c.) injected with a mixture of OVA/Al(OH)3 (100 μg OVA:100 mg Alum in 1 ml saline/rat), and intraperitoneally (i.p.) injected with 0.5 ml/rat of B. Pertussis toxin (0.1 μg/ml) at Day 0 and Day 7. Sham sensitisation was performed by s.c. and i.p. injections of isotonic saline with the same volume and strategy. Each exposure system consisted of a flow-past exposure inhalation chamber, rat restraining tubes and a Modified Wright Dust Feed mechanism. Measurements of the aerosol concentration in the inhalation chamber for each dose level was performed by filter sampling at one of the inhalation ports (AP40, 47 mm, Millipore). […] Rats from Group 2 and 3 were exposed to lactose in the restraining tube (Battelle chambers). Target inhaled doses (μg/kg) were calculated assuming exposure duration of 2-10 minutes and a body weight of 250 g using the following formula: The rats were weighed the day prior to OVA challenge. At challenge the rats were anaesthetised with Isoflurane mixture (air and 4% isoflurane) put in supine position with 30-40° angle and instilled with vehicle or compound. This intra-tracheal instillation was performed by using a modified metal cannula with bolus-bulb on the end. Rats were placed in. cages in a supine position with a head up until regaining consciousness. The reference compound was administered twice daily with the second daily administration 6 hours post the first daily administration. Instillation volume: 0.25 mL/rat. Five minutes (5′) before OVA challenge, blood was collected (0.2 ml) from the tongue vein and plasma (60 ul/well) was collected on 96-deepwell plate. The provocation occurred at Day14 (P1) and was applied 2 hours after compound administration. The rats were anaesthetized with Isoflurane mixture (air and 4% isoflurane) put in supine position with 30-40° angle and instilled with the isotonic saline or OVA (0.1 mg/ml). The intra-tracheal instillation was performed. by using a modified metal cannula with bolus-bulb on the end. Rats were placed in cages in a supine position with a head up until regaining consciousness. Sham challenge was performed by i.t. instillation of isotonic saline with the same volume and strategy. Instillation volume: 0.25 ml/rat. At 22 hours post OVA challenge (P1), rats were euthanized with an intraperitoneal injection of 1 ml pentobarbital (50 mg/ml). […]"}}, "data": [{"molecule": "COC[C@H](C(=O)Nc1cccc2c(-c3nc(Nc4cccc(S(C)(=O)=O)c4F)ncc3F)c[nH]c12)N1CCN(C)CC1", "note": "[Example 35, (R)-N-(3-(5-fluoro-2-(2-fluoro-3-(methylsulfonyl)phenylamino)pyrimidin-4-yl)-1H-indol-7-yl)-3-methoxy-2-(4-methylpiperazin-1-yl)propanamide]", "values": [{"measurement": "IC50", "setting": "[1]", "value": "< 0.003", "unit": "µM"}, {"measurement": "IC50", "setting": "[2]", "value": "> 30", "unit": "µM"}, {"measurement": "mean plasma exposure (total concentration)", "setting": "[3]", "value": 338, "unit": "nM"}, {"measurement": "max inhibition of eosinophils", "setting": "[4]; compared to OVA control (group 3), plateau from the 0.6 μg/kg dose", "value": 68, "unit": "%"}, {"measurement": "reduction of eosinophils in BAL", "setting": "[4]; lung dose 0.08 μg/kg, not significant", "value": 7, "unit": "%"}, {"measurement": "reduction of eosinophils in BAL", "setting": "[4]; lung dose 0.11 μg/kg, not significant", "value": 28, "unit": "%"}, {"measurement": "reduction of eosinophils in BAL", "setting": "[4]; lung dose 0.6 μg/kg, p<0.01", "value": 68, "unit": "%"}, {"measurement": "reduction of eosinophils in BAL", "setting": "[4]; lung dose 4.76 μg/kg, p<0.01", "value": 61, "unit": "%"}]}]}
